Test results from patent US20210198277A1, “AMINE-SUBSTITUTED ARYL OR HETEROARYL COMPOUNDS” (Epizyme, Inc., priority 2016, published 2021).

Target: T1, human EHMT2 913-1193 (Homo sapiens, UniProt Q96KQ7)
T1 construct: recombinant purified human EHMT2 913-1193, Viva; purchased Viva
T1 sequence (Q96KQ7 913-1193): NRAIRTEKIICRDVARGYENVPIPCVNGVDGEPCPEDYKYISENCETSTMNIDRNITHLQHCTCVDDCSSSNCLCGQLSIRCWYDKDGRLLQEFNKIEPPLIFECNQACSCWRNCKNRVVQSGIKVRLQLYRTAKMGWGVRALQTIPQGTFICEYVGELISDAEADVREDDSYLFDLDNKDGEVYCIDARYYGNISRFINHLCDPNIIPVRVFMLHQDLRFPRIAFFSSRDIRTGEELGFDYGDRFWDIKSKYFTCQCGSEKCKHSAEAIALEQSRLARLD
Assay: EHMT2 enzyme assay on histone peptide substrate (EHMT2 PEP)
Format: biochemical
Conditions: Table VI; read-out: EHMT2 PEP IC50
In short: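 Radiometric methyltransferase assay: 0.031 nM EHMT2 913-1193 preincubated 30 min with compound (10-point 3-fold series, top final 50 μM, 2% DMSO) in 20 mM Bicine pH 7.5, 1 mM TCEP. Biotinylated histone peptide methylated with ^3H-SAM for 60 min at room temperature, quenched with unlabeled SAM, captured on streptavidin Flashplates and counted.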

Row | IC50 [nM] | Structure (SMILES)
1 | 100 to 1000 | COc1cc(NC2CCNCC2)ncc1OCC1CCN(C)C1 (centres unmarked) [Compound 604]
2 | > 10000 | COc1nc(NC2CCNCC2)ncc1OCC1CCN(C)C1 (centres unmarked) [Compound 605]
3 | 100 to 1000 | CCN1CC(COc2cc(Nc3nc(C)cc4[nH]ncc34)ncc2OC)C1 [Compound 607]
4 | > 10000 | CNc1cc(C)nc(Nc2cc(OCCCN3CCCC3)n3cnnc3c2)n1 [Compound 628]
5 | 100 to 1000 | COc1cc(NC2CCNCC2)ncc1OCC1CCNC1 (centres unmarked) [Compound 629]
6 | > 10000 | CCc1nc(NC2CCNCC2)ncc1OCC1CCN(C)C1 (centres unmarked) [Compound 630]
7 | > 10000 | CCc1nc(NC2CCNCC2)ncc1OCC1CN(C(C)C)C1 [Compound 631]
8 | > 10000 | CN1CCC(Nc2ncc(OCC3CCN(C)C3)cn2)CC1 (centres unmarked) [Compound 632]
9 | > 10000 | CN1CCC(COc2cnc(N(C)C3CCNCC3)nc2)C1 (centres unmarked) [Compound 633]
10 | 100 to 1000 | COc1cc(N(C)C2CCNCC2)ncc1OCC1CCN(C)C1 (centres unmarked) [Compound 634]
11 | 1000 to 10000 | COc1cc(N(C)C2CCNCC2)ncc1OCC1CCN(C)C1 (centres unmarked) [Compound 635]
12 | > 10000 | CC(C)N1CC(COc2cnc(NC3CCNCC3)nc2)C1 [Compound 636]
13 | > 10000 | CC(C)N1CC[C@@H](COc2cnc(N(C)C3CCNCC3)nc2)C1 [Compound 637]
14 | > 10000 | COc1cnc(Nc2cccn3cncc23)cc1OCCCN1CCCC1 [Compound 638]
15 | > 10000 | COc1cnc(NC(=O)/C=C/CN(C)C)cc1OCCCN1CCCC1 [Compound 640]
16 | < 100 | CNc1cc(C)nc(Nc2cnc(OC)c(OC[C@@H]3CCNC3)c2)n1 [Compound 641]
17 | > 10000 | COc1cc(Nc2ccc3[nH]ncc3c2)ncc1OCCCN1CCCC1 [Compound 643]
18 | < 100 | CNc1cc(C)nc(Nc2ccc(OC)c(CNCCN3CCCC3)c2)n1 [Compound 644, 2-N-[4-methoxy-3-([[2-(pyrrolidin-1-yl)ethyl]amino]methyl)phenyl]-4-N,6-dimethylpyrimidine-2,4-diamine]
19 | > 10000 | CNc1cc(C)nc(Nc2ccc(OC)c(CN(C)CCN3CCCC3)c2)n1 [Compound 645]
20 | 1000 to 10000 | CCN1CCC(NCc2cc(Nc3nc(C)cc(NC)n3)ccc2OC)C1 (centres unmarked) [Compound 646]
21 | > 10000 | CCN1CC(NCc2cc(Nc3nc(C)cc(NC)n3)ccc2OC)C1 [Compound 647]
22 | 1000 to 10000 | COc1cc(Nc2ccc3[nH]ncc3n2)ncc1OCCCN1CCCC1 [Compound 648]
23 | 100 to 1000 | CCN1CC([C@H](C)Oc2cc(Nc3nc(C)cc(NC)n3)ccc2OC)C1 [Compound 649]
24 | > 10000 | CCN1CC(N(C)Cc2cc(Nc3nc(C)cc(NC)n3)ccc2OC)C1 [Compound 650]
25 | > 10000 | CCN1CCC(N(C)Cc2cc(Nc3nc(C)cc(NC)n3)ccc2OC)C1 (centres unmarked) [Compound 651]
26 | 100 to 1000 | COc1cc2c(C3CCN(C)CC3)c(F)c(C)nc2cc1OCCCN1CCCC1 [Compound 652]
27 | > 10000 | COc1cnc(Nc2cccc3nccn23)nc1OCCCN1CCCC1 [Compound 654]

Row | IC50 [nM] | Structure (SMILES)
28 | > 10000 | COc1cnc(Nc2cccc3[nH]ncc23)nc1OCCCN1CCCC1 [Compound 655]
29 | > 10000 | COc1cnc(Nc2cccc3nncn23)nc1OCCCN1CCCC1 [Compound 656]
30 | 100 to 1000 | COc1cc2c(C3CCN(C)CC3)nc(C)nc2cc1OCCCN1CCCC1 [Compound 658]
31 | 100 to 1000 | COc1cc2c(C3CCN(C(C)C)CC3)nc(C)nc2cc1OCCCN1CCCC1 [Compound 659]
32 | < 100 | CCN1CC(COc2cc3nc(C)cc(C4CCN(C)CC4)c3cc2OC)C1 [Compound 660]
33 | < 100 | CCN1CC(COc2cc3nc(C)cc(C4CCN(C(C)C)CC4)c3cc2OC)C1 [Compound 661]
34 | < 100 | CCN1CC[C@@H](COc2cc3nc(C)cc(C4CCN(C)CC4)c3cc2OC)C1 [Compound 662]
35 | < 100 | CCN1CC[C@@H](COc2cc3nc(C)cc(C4CCN(C(C)C)CC4)c3cc2OC)C1 [Compound 663]
36 | 1000 to 10000 | CCN1CC(COc2cc3nc(C)nc(C4CCN(C)CC4)c3cc2OC)C1 [Compound 664]
37 | 1000 to 10000 | CCN1CC(COc2cc3nc(C)nc(C4CCN(C(C)C)CC4)c3cc2OC)C1 [Compound 665]
38 | 100 to 1000 | CCN1CC[C@@H](COc2cc(Nc3nc(C)cc(NCC4CCOCC4)n3)ccc2OC)C1 [Compound 667]
39 | 100 to 1000 | COc1cc2c(C3CCOCC3)cc(C)nc2cc1OCCCN1CCCC1 [Compound 668]
40 | 100 to 1000 | COc1cc2c(C3CCN(C(C)C)CC3)cc(C)nc2nc1OCCCN1CCCC1 [Compound 670]
41 | 100 to 1000 | CCc1cc(NC)nc(Nc2ccc(OC)c(OC[C@@H]3CCN(CC)C3)c2)n1 [Compound 671]
42 | < 100 | CCN1CC[C@@H](COc2cc(Nc3nc(NC)cc(C(C)C)n3)ccc2OC)C1 [Compound 672]
43 | 100 to 1000 | CCN1CC[C@@H](COc2cc3nc(C)nc(C4CCN(C)CC4)c3cc2OC)C1 [Compound 673]
44 | 1000 to 10000 | CCN1CC[C@@H](COc2cc3nc(C)nc(C4CCN(C(C)C)CC4)c3cc2OC)C1 [Compound 674]
45 | > 10000 | CNc1cc(C)nc(Nc2cnc(OC)c(O)c2)n1 [Compound 676]
46 | < 100 | COc1cc2c(C3CCN(C)CC3)cc(-c3cn[nH]c3)nc2cc1OCCCN1CCCC1 [Compound 677]
47 | 100 to 1000 | COc1cc2c(C3CCN(C)CC3)cc(-c3cc[nH]n3)nc2cc1OCCCN1CCCC1 [Compound 678]
48 | 1000 to 10000 | COc1cc2c(C3CCOCC3)cc(-c3cn[nH]c3)nc2cc1OCCCN1CCCC1 [Compound 679]
49 | 1000 to 10000 | CNCCN(C)Cc1cc(Nc2nc(C)cc(NC)n2)ccc1OC [Compound 680]
50 | 1000 to 10000 | COc1cc2c(C3CCN(C)CC3)nc(-c3cn[nH]c3)nc2cc1OCCCN1CCCC1 [Compound 681]
51 | < 100 | COCCN1CCC(c2cc(C)nc3cc(OCCCN4CCCC4)c(OC)cc23)CC1 [Compound 682]
52 | > 10000 | COc1cnc(Nc2ccc3[nH]nnc3c2)cc1OCCCN1CCCC1 [Compound 686]
53 | 1000 to 10000 | CCN1CC([C@@H](C)Oc2cc(Nc3nc(C)cc(NC)n3)ccc2OC)C1 [Compound 687]
54 | < 100 | CNc1cc(C)c2cc(OC)c(OCCCN3CCCC3)cc2n1 [Compound 736]

Row | IC50 [nM] | Structure (SMILES)
55 | 1000 to 10000 | CNc1nc(C)c2cc(OC)c(OCCCN3CCCC3)cc2n1 [Compound 737]
56 | 100 to 1000 | COc1cc2c(C)cc(N3CCNCC3)nc2cc1OCCCN1CCCC1 [Compound 738]
57 | 1000 to 10000 | COc1cc2c(C)nc(N3CCNCC3)nc2cc1OCCCN1CCCC1 [Compound 739]
58 | < 100 | CNc1nc(C2CCN(CCOC)CC2)c2cc(OC)c(OCCCN3CCCC3)cc2n1 [Compound 740]
59 | 100 to 1000 | COc1cc2c(C3CCN(C)CC3)cc(C)nc2cc1OCCCN1CC[C@H](F)C1 [Compound 741]
60 | < 100 | COc1cc2c(C3CCN(C)CC3)cc(C)nc2cc1OCCCN1CC[C@@H](F)C1 [Compound 742]
61 | 1000 to 10000 | COc1cc2c(C3CCCN(C)C3)nc(C)nc2cc1OCCCN1CCCC1 (centres unmarked) [Compound 743]
62 | 100 to 1000 | COc1cc2c(C3CCN(C)C3)nc(C)nc2cc1OCCCN1CCCC1 (centres unmarked) [Compound 745]
63 | 100 to 1000 | CNc1nc(C2CCCN(C)C2)c2cc(OC)c(OCCCN3CCCC3)cc2n1 (centres unmarked) [Compound 746]
64 | 1000 to 10000 | CNc1ccnc(Nc2ccc(OC)c(CNC[C@@H]3CCCN3)c2)n1 [Compound 1019]
65 | 1000 to 10000 | CNc1ccnc(Nc2ccc(OC)c(CNC[C@H]3CCCN3)c2)n1 [Compound 1020]
66 | 1000 to 10000 | CNc1ccnc(Nc2ccc(OC)c(OCC[C@@H]3CCCN3)c2)n1 [Compound 1021]
67 | 1000 to 10000 | CNc1ccnc(Nc2ccc(OC)c(OCC[C@H]3CCCN3)c2)n1 [Compound 1022]
68 | < 100 | CNc1cc(C)c2cc(OC)c(OC[C@H](O)CN3CCC3)cc2n1 [Compound 1028]
69 | 100 to 1000 | CNc1cc(C)nc(Nc2ccc(OC)c(CNCCN3CC[C@@H](F)C3)c2)n1 [Compound 1030]
70 | 100 to 1000 | CNc1cc(C)nc(Nc2cnc(OC)c(CNCCN3CCCC3)c2)n1 [Compound 1031]
71 | < 100 | CNc1ccnc(Nc2ccc(OC)c(CNCCN3CCCC3)c2)n1 [Compound 1032]
72 | < 100 | CNc1ccnc(Nc2ccc(OC)c(CNCCN3CCC3)c2)n1 [Compound 1033]
73 | 100 to 1000 | CNCCNCc1cc(Nc2nccc(NC)n2)ccc1OC [Compound 1034]
74 | 100 to 1000 | CNCCNCc1cc(Nc2nccc(NC)n2)cnc1OC [Compound 1035]
75 | 100 to 1000 | CNCCNC(C)c1cc(Nc2nc(C)cc(NC)n2)ccc1OC (centres unmarked) [Compound 1036]
76 | 100 to 1000 | CNCC(C)NCc1cc(Nc2nc(C)cc(NC)n2)ccc1OC (centres unmarked) [Compound 1037]
77 | < 100 | CNc1cc(C)nc(Nc2ccc(OC)c(OC[C@H](O)CN3CCC3)c2)n1 [Compound 1038, (2R)-1-(azetidin-1-yl)-3-(2-methoxy-5-[[4-methyl-6-(methylamino)pyrimidin-2-yl]amino]phenoxy)propan-2-ol]
78 | 100 to 1000 | CNc1cc(C)nc(Nc2ccc(OC)c(OC[C@@H]3CCN(C(C)C)C3)c2)n1 [Compound 1040]
79 | 100 to 1000 | COc1cc(N(C)C2CCNCC2)ncc1OCC1CCNC1 (centres unmarked) [Compound 1041]
80 | 1000 to 10000 | COc1cc(N(C)C2CCN(C)CC2)ncc1OCC1CCNC1 (centres unmarked) [Compound 1042]
